# Source: US20220127297A1, “Novel Antibacterial 3"-Derivatives Of 4,6-Disubstituted 2,5-Dideoxystreptamine Aminoglycoside Antibiotics” (AGILeBiotics B.V., priority 2018, published 2022)
# Like-named read-outs stand apart in the source and are kept apart here.
# Assays:
# [1] = test system: A. baumannii DSM 105126; assay: MIC 50, broth micro-dilution, DSM strains; assay type: cell-based, Acinetobacter baumannii
# Source text: (§1) 3.2 Against Selected Bacteria of the ESKAPE Panel and Enterococcus faecalis (DSM Strains)
# (§2) Tested reference compounds. Amikacin sulfate (Cat. No. 01693, Chem-Impex), Gentamicin sulfate (Cat. No. G4918, Sigma Aldrich).
# (§3) Microbial strains. Enterococcus faecalis DSM 2570, Klebsiella pneumoniae DSM 26371, Acinetobacter baumannii DSM 105126, Enterobacter cloacae 3MRGN (clinical bronchial aspirate isolate).
# (§4) Culture media and equipment. BBL™ Mueller Hinton Broth 2 (Lot. BCBW1143, Cat. No. 70192, Sigma); Trypcase Soy Blood-agar plates (Cat. No. 43001, Biomérieux); Cryoinstant (contains 15% glycerol; Cat. No. 822070ZA, VWR International); GasPak™ EZ Standard Incubation Container (Cat. No. 260671, Becton Dickinson); GasPak™ EZ Campy Container System Sachets (Cat. No. 260680, Becton Dickinson); 96-well deep well plate, 1 mL (Cat. No. 0030506.200, Eppendorf); Plate lid (Cat. No. 0030131.525, Eppendorf); 96-well plate, F-bottom (Cat. No. 260860, Nunc); Incubator (Sartorius Certomat BS-1); Laminar flow (Heraeus HS12); UV/VIS meter (Perkin Elmer Lambda Bio+); Platereader (Tecan Infinite M200 Pro).
# (§5) Compound preparation. Compounds were prepared in MH2 media at a concentration of 5 mM and stored at 4° C. For testing, solutions of 128 μM were prepared in MH2, for tests against E. faecalis a solution of 512 μM was prepared. Out of these working solutions, 400 μL was transferred to wells in the first column of 96-well deep well plates. Each compound was transferred in triplicate. Plates were previously filled with 200 μL of MH2 media in all wells except for the wells in the first column. After compound and antibiotic addition, the compounds were serial two-fold diluted by transferring 200 μL from the first to the second column, then from the second to the third column and so on. Finally, 200 μL was removed from the last column.
# (§6) Inoculum preparation. Microorganisms used were all revived from 15% glycerol storage in Croinstant tubes at −28° C. by plating them on blood agar plates. A. baumanni, and E. cloacae were grown aerobically at 37° C., E. faecalis was grown microaerophilically at 37° C., and K. pneumoniae was grown aerobically at 37° C. Plates were stored at 4° C. for up to two weeks, after which new plates were prepared from −28° C. A single colony was inoculated in MH2 media and grown at 37° C. and 200 rpm to an optical density (measured by UV/Vis spectroscopy) of 0.6-0.8 at 600 nm. Out of these suspensions, actual inoculums were prepared by diluting them to an optical density of 0.1 in MH2 media. From these inoculums, 200 μL was transferred to each well, resulting in a final compound concentration range of 64 μM-31.3 nM for, K. pneumoniae, A. baumanni, and E. cloacae, and 256 μM-125 nM for E. faecalis. Plates inoculated with E. faecalis were placed inside a GasPak™ Container System with GasPak™ Campy Container System sachets. All plates were incubated at 200 rpm for 18 h under the microorganism culturing conditions mentioned above.
# (§7) MIC determination. After 18 h of growth, 200 μL was transferred to a 96-well F-bottom plate. The optical density was determined by a plate reader at 600 nm, with 10 s shaking before reading. Triplicate measurements were averaged, and a growth curve was plotted in Excel. The first column in which the growth reached half the value of maximum growth was determined as the MIC50 value for that particular compound.
# (§8) MIC50. The MIC50 of a compound was assigned at which the bacterial growth reached half the value of maximum growth.
# [2] = test system: K. pneumoniae DSM 26371; assay: MIC 50, broth micro-dilution, DSM strains; assay type: cell-based, Klebsiella pneumoniae
# Source text: as §1, §2, §3, §4, §5, §6, §7, §8
# [3] = Acinetobacter baumannii, DSM105126, read-out: MIC 50
# [4] = Klebsiella pneumoniae, DSM26371, K. pneumoniae DSM 26371, read-out: MIC 50
Structure (SMILES),MIC50 [1],MIC50 ([2]; K. pneumoniae DSM 26371),"MIC50 [1, 3]","MIC50 [2, 4]"
"N=C(N)NC1[C@@H](O)C(OC2[C@@H](O)[C@H](O[C@H]3OC(CN)[C@@H](O)[C@H](O)C3N)C(N)C[C@H]2NC(=O)[C@@H](O)CCN)O[C@H](CO)[C@H]1O (stereo partly shown) [ABX4009, KanaB-AHB-Gua]",0.5 µM,1 µM,,
"N=C(NCC1CC1)NC1[C@@H](O)C(OC2[C@@H](F)[C@H](O[C@H]3OC(CN)[C@@H](O)CC3N)C(N)C[C@H]2NC(=O)[C@@H](O)CCN)O[C@H](CO)[C@H]1O (stereo partly shown) [ABX5027, Tobra-AHB-F-Gua cyclopropylmethyl]",,,0.125 µM,0.125 µM
"N=C(N)NC1[C@@H](O)C(OC2[C@@H](F)[C@H](O[C@H]3OC(CN)[C@@H](O)[C@H](O)C3N)C(N)C[C@H]2NC(=O)[C@@H](O)CCN)O[C@H](CO)[C@H]1O (stereo partly drawn) [ABX4004, 3′epi-KanaB-AHB-F-Gua]",0.125 µM,0.25 µM,,
"NCC[C@H](O)C(=O)N[C@@H]1CC(N)[C@@H](O[C@H]2OC(CN)[C@@H](O)CC2N)[C@H](O)C1OC1O[C@H](CO)[C@@H](O)C(N)[C@H]1O (stereo partly shown) [ABX5004, Tobra-AHB]",0.5 µM,1 µM,,
"NCC[C@H](O)C(=O)N[C@@H]1CC(N)[C@@H](O[C@H]2OC(CN)[C@@H](O)[C@@H](O)C2N)[C@H](O)C1OC1O[C@H](CO)[C@@H](O)C(N)[C@H]1O (stereo partly drawn) [ABX4002, 3′Epi-KanaB-AHB]",0.5 µM,1 µM,,
"N=C(NC[C@H]1CCNC1)NC1[C@@H](O)C(OC2[C@@H](F)[C@H](O[C@H]3OC(CN)[C@@H](O)CC3N)C(N)C[C@H]2NC(=O)[C@@H](O)CCN)O[C@H](CO)[C@H]1O (stereo partly drawn) [ABX5042, Tobra-AHB-F-Gua (S) pyrrolidine-3-ylmethyl]",,,0.0625 µM,0.5 µM
"CC(C)(C)CCNC(=N)NC1[C@@H](O)C(OC2[C@@H](F)[C@H](O[C@H]3OC(CN)[C@@H](O)CC3N)C(N)C[C@H]2NC(=O)[C@@H](O)CCN)O[C@H](CO)[C@H]1O (stereo partly shown) [ABX5025, Tobra-AHB-F-Gua 2-tBu-ethyl]",,,0.25 µM,0.5 µM
"NCC[C@H](O)C(=O)N[C@@H]1C[C@H](N)[C@@H](O[C@H]2O[C@H](CN)[C@@H](O)[C@@H](O)[C@H]2O)[C@H](O)[C@H]1O[C@H]1O[C@H](CO)[C@@H](O)[C@H](N)[C@H]1O [ABX3002, 3′Epi-KanaA-AHB]",2 µM,8 µM,,
